Publication PMC4184853, “Biohybrid Polymer-Antimicrobial Peptide Medium against Enterococcus faecalis” (PLoS ONE, 2014)
Like-named read-outs stand apart in the source and are kept apart here. Blank lines part the entries; values can stand above or below the compound they belong to. Non-standard residues stand in square brackets, D forms with d. Residues, ends and D or L forms follow the SMILES beside them. *: point of attachment. Palmitoyl = CCCCCCCCCCCCCCCC(=O)*

Columns and labels:
Format in all cases: cell-based, Enterococcus faecalis
E. faecalis (ATCC #v583) [1] = tested on: E. faecalis (ATCC #v583)
Procedure: (§1) E. faecalis (ATCC #v583), was cultured overnight in 5 ml brain-heart infusion (BHI) (Difco, Detroit, MI, USA) broth supplemented with 2 mg/ml vancomycin (Sigma-Aldrich), at 37°C under aerobic conditions. The top 4 ml were transferred to a fresh test tube and the optical density (OD) was determined according to the specific experiment.
(§2) The antibacterial activity of the peptides was examined using the microdilution assay. Briefly, the bacterial suspension (at OD 0.3) was diluted at a ratio of 1∶1000. Aliquots of 150 µl of bacterial suspension were added to 50 µl of peptide dilutions in phosphate buffered saline (PBS) (Sigma-Aldrich) (in triplicate for each concentration) in a 96-well plate (Nunc 96 microtiter plates, Roskilde, Denmark). The optical density (595 nm) in each well was recorded every 20 min using a microplate reader (VERSAmax tunable microplate reader, molecular devices, Sunnyvale, CA, USA) at 37°C for 18–24 hrs. The minimal inhibitory concentration (MIC) was determined as the concentration which inhibited visible growth after 18–24 hrs.

E. faecalis biofilm [2] = test: Bacterial vitality in biofilm, live/dead staining with confocal microscopy; settings: 72 hrs contact during biofilm formation
Procedure: (§3) Antibiofilm activity was tested on E. faecalis biofilms grown for 72 hrs. Biofilm was formed in microtiter plates (24 well plates for the ATP bioluminescence assay and 96 well plates for the crystal violet biomass assay and confocal laser spectroscopy). Saliva was collected from one donor and DL-Dithiolthreitol (DTT) (Thermo Scientific, Abu-Gosh, Israel) was added to 2.5 mM. The suspension was kept at 4°C for 10 min and then centrifuged for 15 min at 6,500×g. The supernatant was transferred to a fresh sterile tube and diluted to 25% with sterile double distilled water (DDW). The diluted saliva was disinfected using a 0.2 µm vacuum-driven filter (0.22 µm, […], Jet biofil, Belgium). […] Bacterial metabolism in the attached biofilm was assessed using ATP bioluminescence. Biofilm mass was measured using crystal violet as described below.
Confocal laser scanning microscopy (CLSM) was used to explore the vitality of bacteria in the different depth layers of the biofilm. […] To read the results directly, the wells were coated with emulsion oil to prevent dehydration. Fluorescence emission was detected using a Zeiss LSM 410 confocal laser scanning microscope (Carl Zeiss Microscopy, Jena, Germany). Red fluorescence was measured at 630 nm and green fluorescence at 520 nm; objective lenses: x60/oil, 1.4 numerical aperture. […]

E. faecalis (ATCC #v583) [3] = test: Growth curves with soluble peptide: percent growth reduction and generation time; settings: concentrations below 5 µg/ml
Procedure: as §1
as §2, with “Aliquots of 150 µl of bacterial suspension were added to 50 µl of peptide dilutions in phosphate buffered saline (PBS) (Sigma-Aldrich) (in triplicate for each concentration) in a 96-well plate (Nunc 96 microtiter plates, Roskilde, Denmark).” left out
The presented data are the mean and standard deviation of triplicates of a representative experiment repeated three times. The growth mean, and multiple comparisons of growth inhibition by AMP (compared with the growth of untreated bacteria) were calculated from each growth curve using Student’s t-test. […]
Figure 1 E. faecalis growth is inhibited by C16-KGGK but not by hBD3. Growth of E. faecalis was measured (see Materials and Methods) in the presence of increasing concentrations of hBD3 (A) or of the lipopeptide KGGK (B). […]

E. faecalis biofilm [4] = test: Antibiofilm activity, ATP bioluminescence; settings: biofilm exposed 72 hrs, 24 well plates; compared with untreated E. faecalis
Procedure: as §3
Bacterial killing was evaluated by measuring intracellular ATP levels, an energy parameter commonly used as an indicator of cell injury and viability. […] ATP levels were determined using an ATP bioluminescence assay kit (CLS 2, Roch Diagnostics, Mannheim, Germany). In a 96 microtiter plate designed for luminescence assay (Thermo Scientific, NUNC, 96-well optical Btm Plt white, Rochester, NY, USA) a 100 µl volume of the samples was added to 6 wells for each tested group. […]

E. faecalis biofilms = test: Antibiofilm activity, crystal violet biomass assay; settings: biofilm grown 72 hrs in saliva-coated 96 well plates in presence of test material
Procedure: as §3
The total biofilm yield was assessed using crystal violet staining as follows. […] The acetic acid was transferred to wells of a new 96-well microtiter plate that was placed in a microplate reader and absorbance (OD595 nm) was measured.
Figure 3 Effect of the antimicrobial peptides on the development of E. faecalis biofilms. […] The biofilm was stained with 1% crystal violet measured at OD 595 nm (see Materials and Methods). […]

MIC (E. faecalis (ATCC #v583) [1]; ATCC #v583): >25 µg/mL
Compound: CC(C)C[C@H](NC(=O)[C@H](CC(C)C)NC(=O)[C@@H](CCCCN)NC(=O)[C@H](CC(C)C)NC(=O)[C@H](CC(C)C)NC(=O)[C@H](CCCCN)NC(=O)[C@@H](CCCCN)NC(=O)[C@@H](CC(C)C)NC(=O)[C@H](CC(C)C)NC(=O)[C@@H](CCCCN)NC(=O)[C@H](CCCCN)NC(=O)[C@H](CC(C)C)NC(=O)[C@@H](CC(C)C)NC(=O)[C@H](CCCCN)NC(=O)[C@@H](N)CC(C)C)C(N)=O [Amp-1D] (H-LK[dL]LK[dK]L[dL][dK]KLL[dK]LL-NH2; N-terminus assumed)

MIC (E. faecalis (ATCC #v583) [1]; ATCC #v583): 12.5 to 25 µg/mL
Compound: CCCCCCCCCCCCCCCC(=O)N[C@@H](CCCCN)C(=O)N[C@@H](C)C(=O)N[C@@H](C)C(=O)N[C@@H](CCCCN)C(N)=O [C16-KAAK] (Palmitoyl-KAAK-NH2)

MIC (E. faecalis (ATCC #v583) [1]; ATCC #v583): 4 to 5 µg/mL
Compound: CCCCCCCCCCCCCCCC(=O)N[C@@H](CCCCN)C(=O)NCC(=O)NCC(=O)N[C@@H](CCCCN)C(N)=O [C16-KGGK] (Palmitoyl-KGGK-NH2)
concentration causing complete growth inhibition (E. faecalis (ATCC #v583) [1]; planktonic E. faecalis, microdilution, 18–24 hrs): 5 µg/mL | vitality of biofilm bacteria (live/dead stain, CLSM) (E. faecalis biofilm [2]): induced death in the biofilm bacteria | growth of E. faecalis at sub-inhibitory concentrations (E. faecalis (ATCC #v583) [3]): accelerated | ATP levels in biofilm (luminescence) (E. faecalis biofilm [4]): relatively low compared with that in the untreated control

MIC (E. faecalis (ATCC #v583) [1]; ATCC #v583): 6 to 12.5 µg/mL
Compound: CCCCCCCCCCCCCCCC(=O)N[C@@H](CCCCN)C(=O)N[C@@H](CCCCN)C(=O)N[C@@H](CCCCN)C(N)=O [C16-KKK]
anti-biofilm effect (biofilm mass, crystal violet, OD 595 nm) (E. faecalis biofilms): showed anti-biofilm activity

MIC (E. faecalis (ATCC #v583) [1]; ATCC #v583): 6 to 12.5 µg/mL
Compound: CCCCCCCCCCCCCCCC(=O)N[C@@H](CCCCN)C(=O)N[C@@H](CC(C)C)C(=O)N[C@@H](CC(C)C)C(=O)N[C@@H](CCCCN)C(N)=O [C16-KLLK] (Palmitoyl-KLLK-NH2)

MIC (E. faecalis (ATCC #v583) [1]; planktonic E. faecalis ATCC v583, BHI, 37°C, 18–24 hrs, OD 595 nm, triplicate per concentration): > 20 µg/mL
Compound: GIINTLQKYYCRVRGGRCAVLSCLPKEEQIGKCSTRGRKCCRRKK [hBD3, Human recombinant β-defensin 3 obtained from PeproTech, reference compound]
